The values that follow are results of earlier work, collected in publication PMC11003450, “Structure-property relationships of fluorinated carboxylic acid bioisosteres” (Bioorganic & medicinal chemistry letters, 2023).

For data set [1] the following is noted: supplement csv; previously described derivatives A-Y; ref [3]-[5]; cited from earlier work.
For data set [2] the following is noted: supplement csv; previously described phenylpropionic acid derivatives A-Y; ref [3]-[5]; cited from earlier work.

Some results are limits rather than exact numbers.

With `O=C(CCc1ccccc1)NO` [Compound A1], the pKa (in general, the negative logarithm of the acid dissociation constant) in data set [1] is reported as 8.18.
For `CC(=O)N(O)CCc1ccccc1` [Compound A2], the pKa in data set [1] was 8.83.
On to `CONC(=O)CCc1ccccc1` [Compound B1], for which, in data set [1], the pKa is 9.47.
As to `CC(=O)NOCCc1ccccc1` [Compound B2], the pKa in data set [1] was 9.58.
As for `NS(=O)(=O)CCc1ccccc1` [Compound G1], the pKa in data set [1] was 10.04.
For `CN(C)S(=O)(=O)NC(=O)CCc1ccccc1` [Compound H2], the logD7.4 in data set [2] is 0.12. Also, the pKa in data set [1] was 5.79.
As to `CC1(NS(=O)(=O)CCc2ccccc2)COC1` [Compound H5], the logD7.4 in data set [2] is 1.58. Besides, the pKa in data set [1] is 10.45.
Regarding `CC(=O)NC1(CCc2ccccc2)CS(=O)(=O)C1` [Compound H6], the logD7.4 in data set [2] is recorded as 1.18. Also, the pKa in data set [1] is given as greater than 12.
For `O=S(=O)(NC1(CCc2ccccc2)COC1)c1ccccc1` [Compound H8], in data set [2], the logD7.4 is 2.76. Also, the pKa in data set [1] is given as 10.29.
With `CN(C)S(=O)(=O)NC1(CCc2ccccc2)COC1` [Compound H9], the logD7.4 in data set [2] was 1.96. For the same compound, the pKa in data set [1] is recorded as 11.02.
With `CS(=O)(=O)NC1(CCc2ccccc2)CSC1` [Compound H10], the logD7.4 in data set [2] was 2.44. Moreover, the pKa in data set [1] is 10.45.
For the compound `O=S(=O)(NC1(CCc2ccccc2)CSC1)c1ccccc1` [Compound H11], the logD7.4 in data set [2] is listed as 2.96. In data set [1], the pKa is greater than 12.
With `CN(C)S(=O)(=O)NC1(CCc2ccccc2)CSC1` [Compound H12], the logD7.4 in data set [2] is listed as 2.83. For the same compound, the pKa in data set [1] is on record as 11.93.
Regarding `CS(=O)(=O)NC1(CCc2ccccc2)C[S+]([O-])C1` (stereo not drawn) [Compound H13], in data set [2], the logD7.4 was 0.87. Also, in data set [1], the pKa is 9.87.
In the case of `O=S(=O)(NC1(CCc2ccccc2)C[S+]([O-])C1)c1ccccc1` (stereo not drawn) [Compound H14], the logD7.4 in data set [2] is reported as 0.76.
Consider `CN(C)S(=O)(=O)NC1(CCc2ccccc2)C[S+]([O-])C1` (stereo not drawn) [Compound H15], for which, in data set [2], the logD7.4 is on record as 1.45. For the same compound, in data set [1], the pKa is reported as 10.33.
As for `CS(=O)(=O)NC1(CCc2ccccc2)CS(=O)(=O)C1` [Compound H16], the logD7.4 in data set [2] was 1.03. In data set [1], the pKa is on record as 9.44.
For `O=S1(=O)CC(CCc2ccccc2)(NS(=O)(=O)c2ccccc2)C1` [Compound H17], the logD7.4 in data set [2] was 1.89. For the same compound, the pKa in data set [1] is on record as 10.22.
For `O=C1CCC(Cc2ccccc2)=C1O` [Compound U1], in data set [1], the pKa is given as 8.88.
Consider `O=C1CC(c2ccccc2)C=C1O` (stereo not drawn) [Compound U2], for which the pKa in data set [1] was 8.28.
Consider `Oc1c(F)cc(Cc2ccccc2)cc1F` [Compound W1], for which the pKa in data set [1] is recorded as 7.19.
Take `Oc1c(F)ccc(Cc2ccccc2)c1F` [Compound W2]: the pKa in data set [1] is 7.05.
As for `[O-][S+](Cc1ccccc1)c1ccccc1O` (stereo not drawn) [Compound W4], in data set [1], the pKa is 7.7.
On to `O=S(=O)(Cc1ccccc1)c1ccccc1O` [Compound W5], for which, in data set [1], the pKa is on record as 7.12.
`OC1(CCc2ccccc2)CSC1` [Compound X1]: in data set [1], the pKa is given as greater than 12.
For `[O-][S+]1CC(O)(CCc2ccccc2)C1` (stereo not drawn) [Compound X2], in data set [1], the pKa is reported as greater than 12.
As to `O=[PH](O)CCc1ccccc1` [D], the pKa in data set [1] is on record as 1.98.
On to `O=S(O)CCc1ccccc1` [F], for which the pKa in data set [1] is 2.1.
As for `O=C1NC(=O)C(Cc2ccccc2)S1` (stereo not drawn) [L], the pKa in data set [1] is on record as 6.19.
Regarding `O=C1NC(=O)C(Cc2ccccc2)O1` (stereo not drawn) [M], the pKa in data set [1] was 5.86.
For `O=c1[nH]c(CCc2ccccc2)no1` [N], the pKa in data set [1] is on record as 5.73.
For the compound `O=c1[nH]c(CCc2ccccc2)ns1` [O], in data set [1], the pKa was 6.5.
Consider `S=c1[nH]c(CCc2ccccc2)no1` [Q], for which the pKa in data set [1] is recorded as 3.58.
For the compound `Oc1cc(Cc2ccccc2)on1` [R], the pKa in data set [1] is on record as 5.36.
Regarding `O=C1CC(=O)C(Cc2ccccc2)N1` (stereo not drawn) [S], in data set [1], the pKa is 6.08.
Regarding `OC1(CCc2ccccc2)COC1` [Y], in data set [1], the pKa was greater than 12.
